In series [1] the test system is hESCs. In words: ALP positive colony formation / low-density survival assay of dissociated hESCs on Matrigel. The class given is cell-based, human. The conditions noted are these: for Activity (% ALP positive colony formation by hESCs): Ratio of ALP positive colonies vs. total initially seeded cells. On the procedure:
Human ESC lines H1, HUES7 and HUES9 were cultured on irradiated MEF feeder cells in DMEM-F12 supplemented with 2 mM L-glutamine, lx nonessential amino acids, 20% serum replacement (Invitrogen) and 10 ng/ml basic Fibroblast growth factor (Invitrogen). Chemically-defined and feeder-free hESC culture was described previously (Yao, S. et al., Proc Natl Acad Sci USA 103 (18):6907-6912 (2006)). Briefly, hESCs were grown on Matrigel-coated tissue culture plates in N2B27-CDM (DMEM-F12 supplemented with 1×N2 supplements, lx B27 supplements, 2 mM L-glutamine, 0.11 mM 2-mercaptoethanol, lx nonessential amino acids, and 0.5 mg/ml BSA (fraction V)) and 20 ng/ml bFGF. Human ESCs were passaged every 5-6 days with 0.05% trypsin.
For clonal survival assays, single hESCs were diluted to clonal density and plated onto 96-well Matrigel-coated plate. For low-density survival assays, 500 cells were plated onto 96-well Matrigel-coated plate. To visualize hESC colonies, cultures were fixed in 4% paraformaldehyde in PBS for 5 min, washed once in PBS, then stained for alkaline phosphatase activity as described in manufacturer's instructions. ALP positive colonies were counted on an inverted microscope.
ALP detection kit and integrin antibodies were from Chemicon. AG825 (Erb2 inhibitor), AG1478 (EGFR inhibitor), PPP (IGFR1 inhibitor) were purchased from Calbiochem. Antibodies raised against the intracytoplasmic tail of E-cadherins (Transduction Laboratories, Lexington, Ky.) were used for immunoprecipitation. The antibody TS2/16 was from Pierce. Antibodies to the extracellular domain of E-cadherin molecule were from Zymed (Carlsbad). Antibodies against extracellular signal-regulated kinase/MAPK, EGFR1, ERB2, GADPH and phosphorylated form of AKT were from Cell Signaling. Mouse monoclonal anti-phosphotyrosine (4G-10 clone) was from Upstate Biotechnology. Ptn and Tzv were added to culture medium at 2 μM. […]

The test system of series [2] is hESCs. In words: Cell adhesion assay. Type of series: cell-based, human. On the procedure:
Cell adhesion assays were performed in 96-well microtiter plates coated with Matrigel. After trypsin, hESCs were resuspended in the chemically-defined media containing the desired compounds. Cells were then added to the microtiter wells and incubated for 3 h at 37° C. Unbound and loosely bound cells were removed by shaking and washing, and the remaining cells were then fixed immediately. The wells were washed 3 times with 200 μl of H2O, and attached cells were stained with Crystal Violet (Sigma). The absorbance of each well at 570 nm was then measured. For experiments with blocking antibodies, cells were pre-incubated with antibodies on ice for 30 min, and adhesion assays were performed in the presence of antibodies. Each sample was assayed independently for three times.

Series [3] deals with β1 integrin. In words: Activated β1 integrin (HUTS-21 binding; flow cytometry, immunostaining). The class given is cell-based, human. The conditions noted are these: PMA 10 nM; immunostaining of active β1 integrins. The source says:
To gain insights into the mechanism of β1 integrin regulation by Tzv and Ptn, we investigated whether the compounds' effect is due to changes of integrin expression. In contrast to E-cadherin, β1 integrin was not cleaved by trypsin. […] Thus, Tzv and Ptn are likely to affect cell adhesion by modulating integrin activity (FIG. 3 d,e). To examine the effects of compound treatment on the activity of β1 integrin, we used the monoclonal antibody HUTS-21, which specifically binds to the activated form of the 131 integrin (Luque, A. et al., J Biol Chem 271 (19):11067-11075 (1996)).
To assess the expression of E-cadherin, activated integrin and SSEA4, dissociated cells (3×10^5) were washed with PBS and resuspended in PBS containing 2% goat serum. Cells were then incubated with the appropriate antibody for 1 h at 4° C., washed with the blocking solution, and labeled with FITC-conjugated secondary antibody for 30 min at 4° C. Cells were then washed and analyzed on a FACS Calibur flow cytometer.

The test system of series [4] is epithelial to mesenchymal transition/EMT. In words: Induction of MET / inhibition of EMT. Type of series: cell-based.
Series [5] relates to hESCs. In words: Karyotyping (G-banding) of long-term expanded hESCs. The conditions noted are these: more than 20 generations; chemically-defined medium. Type of series: cell-based, human. On the procedure: Teratoma formation experiments were performed by injecting 3-5 million hESCs (maintained in the presence of compounds Tvz or Ptn) under the kidney capsule of nude mice. After 4-5 weeks, all mice developed teratomas, which were removed and then immunohistologically analyzed by The Scripps Research Institute Research Histology Service and Animal Resources. Compounds treated cells were karyotyped by standard G-banding at the Children's Hospital Oakland, Cytogenetics Laboratory. No chromosomal abnormality was found in the 10 randomly picked nuclei.

Series [6] has as its system hESCs. In words: Cell death analysis of dissociated hESCs in suspension culture. Type of series: cell-based, human. The source says: hESCs are known to be difficult in forming embryoid bodies (EBs) in suspension culture after single cell dissociation due to extensive cell death. Thus, we also tested whether Tzv or Ptn could promote survival of dissociated hESCs in suspension. […] Because cell aggregation is most often mediated through cell-cell adhesions and E-cadherin is the primary cell-cell adhesion molecule, as well as highly expressed in hESCs (Eastham, A. M. et al., Cancer Res 67 (23): 11254-11262 (2007)), we tested the effect of a specific E-cadherin blocking antibody on multicellular aggregate formation.
The hESCs under different treatments were dissociated by trypsin and fixed by 4% paraformaldehyde. And the staining was carried out according to the manufacturer's instructions (MBL Laboratories, Watertown, Mass.). After staining, samples were analysed by flow cytometry using a FACS Calibur flow cytometer (BD).

Series [7] relates to stem cells. In words: Survival and anti-differentiation of stem cells ex vivo. The class given is cell-based. As to conditions: human and mouse embryonic, neural, skin, mesenchymal, hematopoietic, stromal and epithelial stem cells; contact immediately after isolation. The source says:
In some embodiments, the invention provides methods of promoting survival and anti-differentiation in stem cells ex-vivo.

For series [8], the system named is growth factor receptors, AKT and ERK. In words: Western blot of phosphorylation status in hESCs. Type of series: cell-based, human. The source says:
Interplay between physical/structural environment and growth factor plays a very important role in cell fate regulation (Comoglio, P. M., Boccaccio, C., & Trusolino, L., Curr Opin Cell Biol 15 (5):565-571 (2003)). To examine whether growth factors are involved in integrin-mediated hESC survival, we treated dissociated hESCs with Tzv or Ptn together with individual highly specific growth factor receptor inhibitors. […] Similarly inhibition of FGFR, IGFR, EGFR1 or Erb2 also greatly abolished Tzv-induced hESC survival in suspension culture.
Phosphatidylinositol-3-kinase (PI-3K) signaling and MAPK/ERK are major regulators for hESC self-renewal (Armstrong, L. et al., Hum Mol Genet 15 (11): 1894-1913 (2006); Paling, N. R. et al., J Biol Chem 279 (46):48063-48070 (2004); Pyle, A. D., Lock, L. F., & Donovan, P. J., Nat Biotechnol 24 (3):344-350 (2006); Li, J. et al., Differentiation 75 (4):299-307 (2007)). Phosphorylation of ERK and AKT, a downstream effector of PI-3K, were increased upon treatment of dissociated hESCs with Ptn, and this increase was abolished by integrin blocking antibody (FIG. 4e,f). Moreover, activation of AKT and ERK by Ptn was blocked by inhibitors of FGFR, IGFR, EGFR or Erb2 (FIG. 4g and data not shown).

Molecules are shown by their SMILES.

As to `O=S(=O)(NCC1CC1)c1ccc(Nc2nccc(N3CCCc4cc(O)ccc43)n2)cc1` [drawing 23], in series [1], the “Activity (% ALP positive colony formation by hESCs)” value is recorded as 23.2%.

Regarding `O=S(=O)(NCC1CC1)c1ccc(Nc2nccc(Nc3ccccc3)n2)cc1`, the “Activity (% ALP positive colony formation by hESCs)” value in series [1] was found to be 3.3%. As to `O=C(NCc1ccccc1)c1csc(Nc2ccccc2)n1`, in series [1], the “Activity (% ALP positive colony formation by hESCs)” value is 4.5%.

Take `COc1ccc2c(c1)CCCN2c1ccnc(Nc2ccc(S(=O)(=O)NCCC(C)C)cc2)n1`: the “Activity (% ALP positive colony formation by hESCs)” value in series [1] came to 3.3%.

On to `CC(C)CCNS(=O)(=O)c1ccc(Nc2nccc(N3CCc4ccccc4C3)n2)cc1`, for which, in series [1], the “Activity (% ALP positive colony formation by hESCs)” value is recorded as 3.2%. Still for that read-out and setting: to `CC(C)CCNS(=O)(=O)c1ccc(Nc2nccc(N3CCCc4cc(O)ccc43)n2)cc1` belongs 23.5%. As for `CC(C)CCNS(=O)(=O)c1ccc(Nc2nccc(N3CCCc4ccccc43)n2)cc1`, in series [1], the “Activity (% ALP positive colony formation by hESCs)” value is listed as 3.4%. On the same count and under the same terms, to `CNS(=O)(=O)c1ccc(Nc2nccc(N3CCc4ccccc4C3)n2)cc1` belongs 3.6%. In the case of `O=C(NCC1CC1)c1ccc(Nc2nccc(N3CCCc4cc(O)ccc43)n2)cc1`, in series [1], the “Activity (% ALP positive colony formation by hESCs)” value was 2.9%. Take `COc1ccc(CNC(=O)c2csc(Nc3ccncn3)n2)cc1`: in series [1], the “Activity (% ALP positive colony formation by hESCs)” value is 5%. Still for that read-out and setting: the same measure for `O=S(=O)(NC1CC1)c1ccc(Nc2nccc(N3CCc4ccccc43)n2)cc1`: 6.2%; for `CC(C)CCNS(=O)(=O)c1ccc(Nc2nccc(N3CCc4ccccc43)n2)cc1`: 3.1%. In the case of `O=S(=O)(NCC1CC1)c1ccc(Nc2nccc(N3Cc4ccccc4C3)n2)cc1`, the “Activity (% ALP positive colony formation by hESCs)” value in series [1] is reported as 3.5%. Turning to `O=S(=O)(NCC1CC1)c1ccc(Nc2nccc(N3CCCc4ccccc43)n2)cc1`, the “Activity (% ALP positive colony formation by hESCs)” value in series [1] is given as 5.2%. On the same count and under the same terms, the same measure for `O=S(=O)(NC1CC1)c1ccc(Nc2nccc(N3CCCc4cc(O)ccc43)n2)cc1`: 8%. On to `O=C(NCc1ccccc1)c1csc(Nc2ccncc2)n1`, for which the “Activity (% ALP positive colony formation by hESCs)” value in series [1] came to 20.3%. In the case of `CCCCCCCCCCCCCC(=O)O[C@@H]1[C@@H](C)[C@@]2(O)[C@@H](C=C(CO)C[C@]3(O)C(=O)C(C)=C[C@@H]23)[C@@H]2C(C)(C)[C@]12OC(C)=O` [PMA, phorbol 12-myristate 13-acetate, reference compound], in series [2], the “cell adhesion and colony formation of dissociated hESCs” value is “substantial increase in cell adhesion and colony formation”. The integrin activation entry in series [3] is reported as “caused integrin activation”. Consider `O=S(=O)(NC1CC1)c1ccc(Nc2nccc(N3CCCc4ccccc43)n2)cc1`, for which the “Activity (% ALP positive colony formation by hESCs)” value in series [1] amounted to 3.1%. For the compound `CNS(=O)(=O)c1ccc(Nc2nccc(N3CCCc4ccccc43)n2)cc1`, the “Activity (% ALP positive colony formation by hESCs)” value in series [1] is on record as 3%.

Turning to `CNS(=O)(=O)c1ccc(Nc2nccc(N3CCCc4cc(O)ccc43)n2)cc1`, the “Activity (% ALP positive colony formation by hESCs)” value in series [1] turned out to be 5.7%.

In the case of `O=S(=O)(NCC1CC1)c1ccc(Nc2nccc(N3CCCc4cc(O)ccc43)n2)cc1` [Ptn, N-(cyclopropylmethyl)-4-(4-(6-hydroxy-3,4-dihydroquinolin-1(2H)-yl)pyrimidin-2-ylamino)benzenesulfonamide], in series [4], the “MET induction and EMT inhibition” value was “can induce MET (the reverse of EMT) and inhibit EMT”. For the same compound, in series [5], the “karyotype of hESCs serially passaged in compound-containing medium” value is “normal karyotype”. Moreover, the “survival of dissociated hESCs in adherent culture” value in series [1] (adherent culture (e.g. Matrigel-coated plate)) is “promoted survival”. Also, the “survival of dissociated hESCs in suspension culture” value in series [6] was “had no effect”. Further, in series [2], the “adhesion of dissociated hESCs to Matrigel or laminin” value was “dramatically increased adhesion” and the “adhesion of hESCs to gelatin or poly-lysine” value is recorded as “not affected”. Further, in series [7], the “survival and anti-differentiation of stem cells” value was “effective in promoting survival and anti-differentiation”. In addition, the “phosphorylation of ERK and AKT” value in series [8] (dissociated hESCs) is listed as “increased”. The “phosphorylation of growth factor receptor” value in series [8] (hESCs treated for 2 h, DMSO control) is “significantly increased the phosphorylation”. `CC(C)CCNS(=O)(=O)c1cccc(Nc2nccc(N3CCCc4cc(O)ccc43)n2)c1`: the “Activity (% ALP positive colony formation by hESCs)” value in series [1] stood at 3.1%.

Regarding `CNS(=O)(=O)c1ccc(Nc2nccc(N3CCCc4cc(OC)ccc43)n2)cc1`, the “Activity (% ALP positive colony formation by hESCs)” value in series [1] turned out to be 3.1%. Same read-out and setting: to `O=C(NCc1ccccc1)c1csc(Nc2ccncn2)n1` [drawing 17] belongs 24.1%; to `O=S(=O)(NCC1CC1)c1ccc(Nc2nccc(N3CCc4ccccc43)n2)cc1`, 6.1%; to `O=C(NCc1ccccc1)c1csc(Nc2ccccn2)n1`, 5.2%. Turning to `CN(C)CCCn1cc(C2=C(c3c[nH]c4ccccc34)C(=O)NC2=O)c2ccccc21` [bisindolylmaleimide I, reference compound], the “effect on increased cell adhesion induced by Ptn” value in series [2] (PKC inhibitor in combination with Ptn) is “could antagonize the increased cell adhesion”. In series [2] (PKC inhibitor in combination with Tzv), the “effect on cell adhesion induced by Tzv” value was “had no effect”.

Source of the values: patent US10975352B2, “Methods of enhancing cell survival of stem cells” (The Scripps Research Institute, priority 2008, dated 2021).
